Earlier results on one molecule are cited in patent US12246054B2, “Method of treating diseases” (Amryt Endo, Inc., priority 2015, dated 2025).

Each structure is given as a SMILES string.

The conditions of data set [1]: in vivo.
The subject of data set [2] is idiopathic intracranial hypertension. The note with it: IIH patients; injections.

Consider `C[C@@H](O)[C@@H]1NC(=O)[C@H](CCCCN)NC(=O)[C@@H](Cc2c[nH]c3ccccc23)NC(=O)[C@H](Cc2ccccc2)NC(=O)[C@@H](NC(=O)[C@H](N)Cc2ccccc2)CSSC[C@@H](C(=O)N[C@H](CO)[C@@H](C)O)NC1=O` [octreotide], for which, in data set [1], the “acute rebound GH hypersecretion” value is “absence of acute rebound GH hypersecretion” and the circulating half-life was 2 h. Besides, the “Patients in whom headache and papilledema subsided and visual disturbances improved (response rate)” value in data set [2] is “about 90%”.
